Measurements reported in patent US20120015907A1, “Furopyridine compounds and uses thereof” (NOVARTIS AG, priority 2010, published 2012).

Molecular target: T1, HCV polymerase (Hepatitis C virus genotype 1b, UniProt Q9WMX2)
T1 construct: (His)6 (C)
Assay: biochemical
Conditions: NS5B polymerase IC50 μM, polymerase assay of Biological Example 1

Row | Compound | IC50 [µM]
1 | CCOP(C)(=O)CCCCCN(c1nc2oc(-c3ccc(C)cc3)c(C(=O)NC)c2cc1C1CC1)S(C)(=O)=O (stereo not drawn) [Example 23.99995, ethyl 5-(N-(5-cyclopropyl-3-(methylcarbamoyl)-2-p-tolylfuro[2,3-b]pyridin-6-yl)methylsulfonamido)pentyl (methyl)phosphinate] | 0.009
2 | CCc1ccc(-c2oc3nc(N(CCCCCP(C)(=O)O)S(C)(=O)=O)c(I)cc3c2C(=O)NC)cc1 [Example 23.9997, 5-(N-(2-(4-ethylphenyl)-5-iodo-3-(methylcarbamoyl)furo[2,3-b]pyridin-6-yl)methylsulfonamido)pentyl (methyl)phosphinic acid] | 0.012

Same assay, conditions: polymerase assay of Biological Example 1; read-out: NS5B polymerase IC50

Row | Compound | IC50 [µM]
3 | CCc1cc2c(C(=O)NC)c(-c3ccc(F)cc3)oc2nc1N(CCN1CCN(C(=O)OC(C)(C)C)CC1)S(C)(=O)=O [Example 21.998, tert-butyl 4-(2-(N-(5-ethyl-2-(4-fluorophenyl)-3-(methylcarbamoyl)furo[2,3-b]pyridin-6-yl)methylsulfonamido)ethyl)piperazine-1-carboxylate] | 0.428
4 | CNC(=O)c1c(-c2ccc(C)cc2)oc2nc(N(CCOCCC(CCOC)C(=O)O)S(C)(=O)=O)c(C3CC3)cc12 (stereo not drawn) [Example 23.999999, 4-{2-[(5-Cyclopropyl-3-methylcarbamoyl-2-p-tolyl-furo[2,3-b]pyridin-6-yl)-methanesulfonyl-amino]-ethoxy}-2-(2-methoxy-ethyl)-butyric acid] | 0.02
5 | CCc1ccc(-c2oc3nc(N(CCCC[C@@H](COC)C(=O)O)S(C)(=O)=O)c(C4CC4)cc3c2C(=O)NC)cc1 [Example 47.4, (S)-6-(N-(5-Cyclopropyl-2-(4-ethylphenyl)-3-(methylcarbamoyl)furo[2,3-b]pyridin-6-yl)methylsulfonamido)-2-(methoxymethyl)hexanoic acid] | 0.003
6 | CCc1cc2c(C(=O)NC)c(-c3ccc(F)cc3)oc2nc1N(CCCC(C)(C)O)S(C)(=O)=O [Example 22.94, 5-ethyl-2-(4-fluorophenyl)-6-(N-(4-hydroxy-4-methylpentyl)methylsulfonamido)-N-methylfuro[2,3-b]pyridine-3-carboxamide] | 0.031
7 | C=C[C@@H](CN(c1nc2oc(-c3ccc(F)cc3)c(C(=O)NC)c2cc1C(=C)C)S(C)(=O)=O)OCc1ccccc1 [Example 35, (S)-6-(N-(2-(benzyloxy)but-3-enyl)methylsulfonamido)-2-(4-fluorophenyl)-N-methyl-5-(prop-1-en-2-yl)furo[2,3-b]pyridine-3-carboxamide] | 6.03
8 | C=CCCCN(c1nc2oc(-c3ccc(F)cc3)c(C(=O)NC)c2cc1I)S(C)(=O)=O [Example 18.5, 2-(4-fluorophenyl)-5-iodo-N-methyl-6-(N-(pent-4-enyl)methylsulfonamido)furo[2,3-b]pyridine-3-carboxamide] | 0.449
9 | CNC(=O)c1c(-c2ccc(C)cc2)oc2nc(N(CCCO)S(C)(=O)=O)c(C3CC3)cc12 [Example 23.99997, 5-cyclopropyl-6-(N-(3-hydroxypropyl)methylsulfonamido)-N-methyl-2-p-tolylfuro[2,3-b]pyridine-3-carboxamide] | 0.004
10 | CNC(=O)c1c(-c2ccc(C)cc2)oc2nc(N(CCCCCCCCC(=O)O)S(C)(=O)=O)c(C3CC3)cc12 [Example 29.992, 9-(N-(5-cyclopropyl-3-(methylcarbamoyl)-2-p-tolylfuro[2,3-b]pyridin-6-yl)methylsulfonamido) nonanoic acid] | 0.007
11 | CNC(=O)c1c(-c2ccc(F)cc2)oc2nc3c(cc12)CCCCN3S(C)(=O)=O [Example 39, 2-(4-Fluoro-phenyl)-9-methanesulfonyl-6,7,8,9-tetrahydro-5H-1-oxa-9,10-diaza-cyclohepta[f]indene-3-carboxylic acid methylamide] | 0.161
12 | 6-{[3-(1,1-Dioxo-tetrahydro-1lambdathiophen-2-yl)-propyl]-methanesulfonyl-amino}-5-ethyl-2-(4-fluoro-phenyl)-furo[2,3-b]pyridine-3-carboxylic acid methylamide [Example 22.99] | 0.015
13 | CNC(=O)c1c(-c2ccc(C)cc2)oc2nc(N(CCCC3(C(=O)O)CCN(C(=O)C(C)(C)C)CC3)S(C)(=O)=O)c(C3CC3)cc12 [Example 29.999992, 4-(3-(N-(5-cyclopropyl-3-(methylcarbamoyl)-2-p-tolylfuro[2,3-b]pyridin-6-yl)methylsulfonamido)propyl)-1-pivaloylpiperidine-4-carboxylic acid] | 0.007
14 | CNC(=O)c1c(-c2ccc(C)cc2)oc2nc(N(CCCC(CC(=O)O)OC)S(C)(=O)=O)c(C3CC3)cc12 (stereo not drawn) [Example 29.999994, 6-(N-(5-cyclopropyl-3-(methylcarbamoyl)-2-p-tolylfuro[2,3-b]pyridin-6-yl)methylsulfonamido)-3-methoxyhexanoic acid] | 0.003
15 | CCc1cc2c(C(=O)NC)c(-c3ccc(F)cc3)oc2nc1N(C[C@H](C)Cc1ccc(OC)nc1)S(C)(=O)=O [Example 21.7, (R)-5-ethyl-2-(4-fluorophenyl)-6-(N-(3-(6-methoxypyridin-3-yl)-2-methylpropyl)methylsulfonamido)-N-methylfuro[2,3-b]pyridine-3-carboxamide] | 0.531
16 | CCc1cc2c(C(=O)NC)c(-c3ccc(F)cc3)oc2nc1N(CCCN(C)S(C)(=O)=O)S(C)(=O)=O [Example 23.3, 5-ethyl-2-(4-fluorophenyl)-N-methyl-6-(N-(3-(N-methylmethylsulfonamido)propyl)methylsulfonamido) furo[2,3-b]pyridine-3-carboxamide] | 0.058
17 | CCc1ccc(-c2oc3nc(N(CCCC(C)C(=O)O)S(C)(=O)=O)c(C4CC4)cc3c2C(=O)NC)cc1 (stereo not drawn) [Example 29.9995, 5-(N-(5-cyclopropyl-2-(4-ethylphenyl)-3-(methylcarbamoyl)furo[2,3-b]pyridin-6-yl)methylsulfonamido)-2-methylpentanoic acid] | 0.002
18 | CNC(=O)c1c(-c2ccc(C)cc2)oc2nc(N(C)S(C)(=O)=O)c(CC(O)CO)cc12 (stereo not drawn) [Example 9.1, 5-(2,3-dihydroxypropyl)-N-methyl-6-(N-methylmethylsulfonamido)-2-p-tolylfuro[2,3-b]pyridine-3-carboxamide] | 0.117
19 | CNC(=O)c1c(-c2ccc(C)cc2)oc2nc(N(CCCCc3nn[nH]n3)S(C)(=O)=O)c(C3CC3)cc12 [Example 29.93, 6-(N-(4-(2H-tetrazol-5-yl)butyl)methylsulfonamido)-5-cyclopropyl-N-methyl-2-p-tolylfuro[2,3-b]pyridine-3-carboxamide] | 0.003
20 | CNC(=O)c1c(-c2ccc(F)cc2)oc2nc(N(CCCCN)S(C)(=O)=O)c(I)cc12 [Example 20, 6-[(4-Amino-butyl)-methanesulfonyl-amino]-2-(4-fluoro-phenyl)-5-iodo-furo[2,3-b]pyridine-3-carboxylic acid methylamide] | 1.84
21 | CNC(=O)c1c(-c2ccc(F)cc2)oc2nc(N(CCCNS(=O)(=O)c3ccccc3[N+](=O)[O-])S(C)(=O)=O)c(I)cc12 [Example 23.993, 2-(4-fluorophenyl)-5-iodo-N-methyl-6-(N-(3-(2-nitrophenylsulfonamido)propyl)methylsulfonamido) furo[2,3-b]pyridine-3-carboxamide] | 0.125
22 | CNC(=O)c1c(-c2ccc(F)cc2)oc2nc(N(CCCS(C)(=O)=O)S(C)(=O)=O)c(I)cc12 [Example 18.993, 2-(4-fluorophenyl)-5-iodo-N-methyl-6-(N-(3-(methylsulfonyl)propyl)methylsulfonamido)furo[2,3-b]pyridine-3-carboxamide] | 0.112
23 | CNC(=O)c1c(-c2ccc(C)cc2)oc2nc(N(CCCC#N)S(C)(=O)=O)c(C3CC3)cc12 [Example 29.5, 6-(N-(3-cyanopropyl)methylsulfonamido)-5-cyclopropyl-N-methyl-2-p-tolylfuro[2,3-b]pyridine-3-carboxamide] | 0.002
24 | CNC(=O)c1c(-c2ccc(F)cc2)oc2nc(N(CCCC(C)(C)C(=O)O)S(C)(=O)=O)c(C3CC3)cc12 [Example 27.1, 5-(N-(5-cyclopropyl-2-(4-fluorophenyl)-3-(methylcarbamoyl)furo[2,3-6]pyridin-6-yl)methylsulfonamido)-2,2-dimethylpentanoic acid] | 0.012
25 | CNC(=O)c1c(-c2ccc(F)cc2)oc2nc(N(CCN(C)S(C)(=O)=O)S(C)(=O)=O)c(I)cc12 [Example 23.996, 2-(4-fluorophenyl)-5-iodo-N-methyl-6-(N-(2-(N-methylmethylsulfonamido)ethyl)methylsulfonamido) furo[2,3-b]pyridine-3-carboxamide] | 0.242
26 | CNC(=O)c1c(-c2ccc(C)cc2)oc2nc(N(CCCN)S(C)(=O)=O)c(C3CC3)cc12 [Example 23.999995, 6-(N-(3-aminopropyl)methylsulfonamido)-5-cyclopropyl-N-methyl-2-p-tolylfuro[2,3-b]pyridine-3-carboxamide] | 0.014
27 | CCc1cc2c(C(=O)NC)c(-c3ccc(F)cc3)oc2nc1N(CCCCC(=O)OC)S(C)(=O)=O [Example 21, methyl 5-(N-(5-ethyl-2-(4-fluorophenyl)-3-(methylcarbamoyl)furo[2,3-b]pyridin-6-yl)methylsulfonamido)pentanoate] | 0.01
28 | CCc1cc2c(C(=O)NC)c(-c3ccc(F)cc3)oc2nc1N(CCCN1CCOCC1)S(C)(=O)=O [Example 21.93, 5-ethyl-2-(4-fluorophenyl)-N-methyl-6-(N-(3-morpholinopropyl)methylsulfonamido)furo[2,3-b]pyridine-3-carboxamide] | 0.186
29 | CCc1ccc(-c2oc3nc(N(CCCC(C)(C)C(=O)O)S(C)(=O)=O)c(C4CC4)cc3c2C(=O)NC)cc1 [Example 29, 5-{[5-Cyclopropyl-2-(4-ethyl-phenyl)-3-methylcarbamoyl-furo[2,3-b]pyridin-6-yl]-methanesulfonyl-amino}-2,2-dimethyl-pentanoic acid] | 0.001
30 | CCc1cc2c(C(=O)NC)c(-c3ccc(F)cc3)oc2nc1N(C[C@@H](C)Cc1ccc(OC)nc1)S(C)(=O)=O [Example 21.6, (S)-5-ethyl-2-(4-fluorophenyl)-6-(N-(3-(6-methoxypyridin-3-yl)-2-methylpropyl)methylsulfonamido)-N-methylfuro[2,3-b]pyridine-3-carboxamide] | 0.948
